Like-named read-outs stand apart in the source and are kept apart here.
Columns and labels:
Type in all cases: in vivo
Cyperus difformis [1] = assay: Herbicidal efficacy alone and with 2,4-D in Malaysia, applied 30 days after seeding (Table 8); conditions: 22 days after treatment
Source text: (§1) Methyl 2-[[[[(4-methoxy-6-methyl-1,3,5-triazin-2-yl)amino]carbonyl]amino]sulfonyl]benzoate (Compound 1) and mixtures thereof with other compounds were applied as a spray (using a hand sprayer) to rice (either transplanted or direct seeded) in several rice growing areas in Southeast Asia and in the U.S. Tables 1-28 contain the results of these tests and clearly exemplify the utility of this invention. The details of each application are included in the appropriate table. [drawing 2]

FIMBRISTYLIS MILIACEA [2] = assay: as above; conditions: 22 days after treatment
Source text: as §1

Marsilea crenata = assay: as above; conditions: 22 days after treatment
Source text: as §1

Monochoria vaginalis [3] = assay: as above; conditions: 22 days after treatment
Source text: as §1

Scirpus grossus = assay: as above; conditions: 22 days after treatment
Source text: as §1

Sphenoclea zeylanica [4] = assay: as above; conditions: 22 days after treatment
Source text: as §1

Cyperus difformis [5] = assay: Herbicidal efficacy with Bensulfuron methyl and 2,4-D in Thailand (Table 18); conditions: 1500 GAI/HA; 13 days after treatment
Source text: as §1

Ludwigia linifolia [6] = assay: as above; conditions: 1500 GAI/HA; 13 days after treatment
Source text: as §1

Sphenoclea zeylanica [7] = assay: as above; conditions: 1500 GAI/HA; 13 days after treatment
Source text: as §1

rice [8] = assay: as above; conditions: 1500 GAI/HA; 13 days after treatment
Source text: as §1

Cuperus difformis = assay: Herbicidal efficacy with Bensulfuron methyl and 2,4-D in Thailand (Table 19); conditions: 1500 GAI/HA; 13 days after treatment
Source text: as §1

Ludwigia linifolia [9] = assay: as above; conditions: 1500 GAI/HA; 13 days after treatment
Source text: as §1

Sphenoclea zeylanica [10] = assay: as above; conditions: 1500 GAI/HA; 13 days after treatment
Source text: as §1

rice [11] = assay: as above; conditions: 1500 GAI/HA; 13 days after treatment
Source text: as §1

Cuperus iria = assay: Herbicidal efficacy with Bensulfuron methyl and 2,4-D in Thailand (Table 20); conditions: 1500 GAI/HA; 14 days after treatment
Source text: as §1

FIMBRISTYLIS MILIACEA [12] = assay: as above; conditions: 1500 GAI/HA; 14 days after treatment
Source text: as §1

Ludwigia linifolia [13] = assay: as above; conditions: 1500 GAI/HA; 14 days after treatment
Source text: as §1

Sphenoclea zeylanica [14] = assay: as above; conditions: 1500 GAI/HA; 14 days after treatment
Source text: as §1

rice [15] = assay: as above; conditions: 1500 GAI/HA; 14 days after treatment
Source text: as §1

FIMBRISTYLIS MILIACEA [16] = assay: Herbicidal efficacy with 2,4-D in Malaysia (Table 21); conditions: 1000 GAI/HA; 42 days after treatment
Source text: as §1

Ludwigia adscendens = assay: as above; conditions: 1000 GAI/HA; 42 days after treatment
Source text: as §1

Masilea crenata = assay: as above; conditions: 1000 GAI/HA; 42 days after treatment
Source text: as §1

Monochoria vaginalis [17] = assay: as above; conditions: 1000 GAI/HA; 42 days after treatment
Source text: as §1

Saggittaria guayanensis = assay: as above; conditions: 1000 GAI/HA; 42 days after treatment
Source text: as §1

Scirpus spp. = assay: as above; conditions: 1000 GAI/HA; 42 days after treatment
Source text: as §1

rice [18] = assay: Effects on rice growth in Thailand, phytotoxicity (Table 2); conditions: 600 GAI/HA, scale 0-10
Source text: as §1

FIMBRISTYLIS MILIACEA [19] = assay: Herbicidal efficacy alone and with 2,4-D in Thailand (Table 3); conditions: 600 GAI/HA, 6 weeks after application
Source text: as §1

rice [20] = assay: Effects on rice growth in Thailand, phytotoxicity (Table 4); conditions: 600 GAI/HA, scale 0-10
Source text: as §1

direct seeded rice = conditions: 1,500 GM.A.I./HA; for PHYTO at 2WAA: scale 0-10
Source text: as §1

Cyperus difformis [21] = assay: Field test applied at 7 DAS in direct seeded rice (Table 11); conditions: 1,500 GM.A.I./HA, scale 0-10
Source text: as §1

Sphenoclea zeylanica [22] = assay: as above; conditions: 1,500 GM.A.I./HA, scale 0-10
Source text: as §1

Cyperus iria [23] = assay: Field test applied at 18 DAS in direct seeded rice (Table 12); conditions: 1,500 GM.A.I./HA, scale 0-10
Source text: as §1

FIMBRISTYLIS MILIACEA [24] = assay: as above; conditions: 1,500 GM.A.I./HA, scale 0-10
Source text: as §1

Jussiaea linifolia = assay: as above; conditions: 1,500 GM.A.I./HA, scale 0-10
Source text: as §1

Sphenoclea zeylanica [25] = assay: as above; conditions: 1,500 GM.A.I./HA, scale 0-10
Source text: as §1

Cyperus iria [26] = assay: Field test applied at 25 DAS in direct seeded rice (Table 13); conditions: 1,500 GM.A.I./HA, scale 0-10
Source text: as §1

Sphenoclea zeylanica [27] = assay: as above; conditions: 1,500 GM.A.I./HA, scale 0-10
Source text: as §1
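Wherever YIELD is given: yield in Tons/ha.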

## O=C(O)COc1ccc(Cl)cc1Cl [2,4-D, 2,4-dichlorophenoxyacetic acid]
Cyperus difformis [1]; 500 GAI/HA
  % CONTROL CD: 95%
Cyperus difformis [1]; 1000 GAI/HA
  % CONTROL CD: 100%
FIMBRISTYLIS MILIACEA [2]; 500 GAI/HA
  % CONTROL FM: 100%
FIMBRISTYLIS MILIACEA [2]; 1000 GAI/HA
  % CONTROL FM: 100%
Marsilea crenata; 500 GAI/HA
  % CONTROL MC: 0%
Marsilea crenata; 1000 GAI/HA
  % CONTROL MC: 0%
Monochoria vaginalis [3]; 500 GAI/HA
  % CONTROL MV: 90%
Monochoria vaginalis [3]; 1000 GAI/HA
  % CONTROL MV: 100%
Scirpus grossus; 500 GAI/HA
  % CONTROL SG: 50%
Scirpus grossus; 1000 GAI/HA
  % CONTROL SG: 75%
Sphenoclea zeylanica [4]; 500 GAI/HA
  % CONTROL SZ: 100%
Sphenoclea zeylanica [4]; 1000 GAI/HA
  % CONTROL SZ: 100%
Cyperus difformis [5]
  % CONTROL OR INJURY CD: 100%
Ludwigia linifolia [6]
  % CONTROL OR INJURY LL: 100%
Sphenoclea zeylanica [7]
  % CONTROL OR INJURY SZ: 90%
Rice [8]
  % CONTROL OR INJURY RICE: 0%
Cuperus difformis
  % CONTROL OR INJURY CD: 100%
Ludwigia linifolia [9]
  % CONTROL OR INJURY LL: 97%
Sphenoclea zeylanica [10]
  % CONTROL OR INJURY SZ: 86%
Rice [11]
  % CONTROL OR INJURY RICE: 0%
Cuperus iria
  % CONTROL OR INJURY CI: 100%
FIMBRISTYLIS MILIACEA [12]
  % CONTROL OR INJURY FM: 100%
Ludwigia linifolia [13]
  % CONTROL OR INJURY LL: 100%
Sphenoclea zeylanica [14]
  % CONTROL OR INJURY SZ: 33.3%
Rice [15]
  % CONTROL OR INJURY RICE: 0%
FIMBRISTYLIS MILIACEA [16]
  % CONTROL OR INJURY FM: 73%
Ludwigia adscendens
  % CONTROL OR INJURY LA: 93%
Masilea crenata
  % CONTROL OR INJURY MC: 56%
Monochoria vaginalis [17]
  % CONTROL OR INJURY MV: 100%
Saggittaria guayanensis
  % CONTROL OR INJURY SG: 74%
Scirpus spp.
  % CONTROL OR INJURY SS: 55%

## O=C([O-])COc1ccc(Cl)cc1Cl.[Na+] [2,4-D (SODIUM SALT), 2,4-dichlorophenoxyacetic acid, sodium salt]
Rice [18]; applied 7 DAS
  PHYTOTOXICITY: 2.33
Rice [18]; applied 14 DAS
  PHYTOTOXICITY: 1.33
Rice [18]; applied 21 DAS
  PHYTOTOXICITY: 0
Rice [18]; applied 28 DAS
  PHYTOTOXICITY: 0
FIMBRISTYLIS MILIACEA [19]; applied 7 DAS
  FIMBRISTYLIS MILIACEA CONTROL: 96%
FIMBRISTYLIS MILIACEA [19]; applied 14 DAS
  FIMBRISTYLIS MILIACEA CONTROL: 95%
FIMBRISTYLIS MILIACEA [19]; applied 21 DAS
  FIMBRISTYLIS MILIACEA CONTROL: 93%
FIMBRISTYLIS MILIACEA [19]; applied 28 DAS
  FIMBRISTYLIS MILIACEA CONTROL: 98%
Rice [20]; applied 7 DAS
  PHYTOTOXICITY: 5.0
Rice [20]; applied 14 DAS
  PHYTOTOXICITY: 3.67
Rice [20]; applied 21 DAS
  PHYTOTOXICITY: 3.0
Rice [20]; applied 28 DAS
  PHYTOTOXICITY: 1
Direct seeded rice; 7 DAS
  YIELD: 4.13 TONS/HA
  PHYTO at 2WAA: 0
Direct seeded rice; 18 DAS
  YIELD: 4.59 TONS/HA
  PHYTO at 2WAA: 0
Cyperus difformis [21]
  WEED CONTROL at 6 WAA CD: 10
Sphenoclea zeylanica [22]
  WEED CONTROL at 6 WAA SZ: 6.0
Cyperus iria [23]
  WEED CONTROL at 6 WAA CI: 9.33
FIMBRISTYLIS MILIACEA [24]
  WEED CONTROL at 6 WAA FM: 9.33
Jussiaea linifolia
  WEED CONTROL at 6 WAA JL: 10
Sphenoclea zeylanica [25]
  WEED CONTROL at 6 WAA SZ: 4.67
Cyperus iria [26]
  WEED CONTROL at 6 WAA CI: 10
Sphenoclea zeylanica [27]
  WEED CONTROL at 6 WAA SZ: 6.67

Source: patent EP0377642B1, “HERBICIDES FOR WEED CONTROL IN RICE” (E.I. DU PONT DE NEMOURS AND COMPANY, priority 1987, dated 1989)
